Laboratory results taken from patent US8937072B2, “Substituted cyanoaniline compounds, preparation and use thereof” (Sinochem Corporation, priority 2011, dated 2015).
Like-named read-outs stand apart in the source and are kept apart here.

Legend:
cucumber downy mildew = experiment: Protectant activity in vivo (whole plant) against cucumber downy mildew; conditions: Cucumis sativus, 168 h; for pest or weed control at 12.5 µg/mL: 12.5 mg/L; for pest or weed control at 100 µg/mL: 100 mg/L; for pest or weed control at 400 µg/mL: dose 400 mg/L
Procedure, shortened: (§1)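 Whole plants sprayed with test solution, water plus 0.1% Tween-80 and no more than 5% solvent, then inoculated with the pathogen after 24 h. Plants held in humidity chamber or directly in greenhouse depending on fungus. Disease control scored by eye at about 7 days.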

cucumber gray mold = experiment: Activity in vitro (96-well, High Through Put): inhibition rate against cucumber gray mold; type: cell-based; conditions: for inhibition at 25 µg/mL: dose 25 mg/L
Procedure, shortened: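 Scored visually at 24 hours relative to control, the readout is pathogen germination or growth. Test solutions used acetone, methanol or DMF as solvent and were mixed with pathogen suspension in a sterile high-throughput format at constant temperature.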

wheat powdery mildew = experiment: Protectant activity in vivo (whole plant) against wheat powdery mildew; conditions: dose 400 mg/L; for pest or weed control at 400 µg/mL: Triticum aestivum, 168 h
Method: The method is as followed: The whole plant is used in this test. The compound is dissolved in a proper solvent to get mother solution. The proper solvent is selected from acetone, methanol, DMF and so on according to their dissolving capability to the sample. The volume rate of solvent and testing solution (v/v) is equal to or less than 5%. The mother solution is diluted with water containing 0.1% tween-80 to get the testing solution whose concentration is designed. The testing solution is sprayed to the host plant by a special plant sprayer. The plant is inoculated with fungus after 24 hours. According to the infecting characteristic of fungus, the plant is stored in a humidity chamber and then transferred into greenhouse after infection is finished. And the other plants are placed in greenhouse directly. The activity of compound is obtained by eyeballing after 7 days in common.

rice blast = experiment: microbe, parasite or virus in culture; type: cell-based; conditions: for inhibition at 0.03 µg/mL: read-out: the inhibition rate against rice blast (%) 0.03 mg/L; for inhibition at 0.1 µg/mL: read-out: the inhibition rate against rice blast (%) 0.1 mg/L
corn rust = experiment: Protectant activity in vivo (whole plant) against corn rust; conditions: for pest or weed control at 6.25 µg/mL / pest or weed control at 25 µg/mL / pest or weed control at 100 µg/mL / pest or weed control at 400 µg/mL: Zea mays, 168 h
Procedure, shortened: as §1

[1] = 25 mg/L, read-out: the protectant activity (%) against cucumber downy mildew
[2] = 50 mg/L, read-out: the protectant activity (%) against cucumber downy mildew
[3] = read-out: the protectant activity (%) against cucumber downy mildew
[4] = 0.9 mg/L, read-out: the inhibition rate against cucumber gray mold (%)
[5] = 2.8 mg/L, read-out: the inhibition rate against cucumber gray mold (%)
[6] = 8.3 mg/L, read-out: the inhibition rate against cucumber gray mold (%)
[7] = Pyricularia oryzae, read-out: inhibition rate against rice blast
[8] = Pyricularia oryzae, read-out: the inhibition rate against rice blast (%) 0.3 mg/L
[9] = 400 mg/L, read-out: the protectant activity (%) against corn rust
[10] = dose 400 mg/L, read-out: protectant activity against corn rust in vivo
[11] = dose 25 mg/L, read-out: protectant activity against cucumber downy mildew in vivo

| SMILES | pest or weed control at 12.5 µg/mL (cucumber downy mildew) | pest or weed control at 25 µg/mL (cucumber downy mildew; [1]) | pest or weed control at 50 µg/mL (cucumber downy mildew; [2]) | pest or weed control at 100 µg/mL (cucumber downy mildew; [3]) | pest or weed control at 400 µg/mL (cucumber downy mildew) | inhibition at 0.3 µg/mL (cucumber gray mold; 0.3 mg/L) | inhibition at 0.9 µg/mL (cucumber gray mold; [4]) | inhibition at 2.8 µg/mL (cucumber gray mold; [5]) | inhibition at 8.3 µg/mL (cucumber gray mold; [6]) | inhibition at 25 µg/mL (cucumber gray mold; in vitro) | pest or weed control at 400 µg/mL (wheat powdery mildew) | inhibition at 25 µg/mL (rice blast; [7]) | inhibition at 0.03 µg/mL (rice blast; Pyricularia oryzae) | inhibition at 0.1 µg/mL (rice blast; Pyricularia oryzae) | inhibition at 0.3 µg/mL (rice blast; [8]) | pest or weed control at 6.25 µg/mL (corn rust; 6.25 mg/L) | pest or weed control at 25 µg/mL (corn rust; 25 mg/L) | pest or weed control at 100 µg/mL (corn rust; 100 mg/L) | pest or weed control at 400 µg/mL (corn rust; [9]) | pest or weed control at 400 µg/mL (corn rust; [10]) | further results |
| --- | --- | --- | --- | --- | --- | --- | --- | --- | --- | --- | --- | --- | --- | --- | --- | --- | --- | --- | --- | --- | --- |
| N#Cc1c(Cl)c(Cl)c(C#N)c(Cl)c1Cl [STM-1] | 0% | 0% | 0% | 0% | 0% | 0% | 0% | 0% | 0% | 0% | 0% | 0% | 0% | 0% | 0% | 0% | 0% | 0% | 0% | 0% | – |
| N#Cc1ccc(Nc2c(Cl)c(F)c(C#N)c(F)c2C#N)cc1 [KC21] | – | – | – | 70% | – | 0% | 0% | 0% | 0% | 0% | 0% | 0% | 0% | 0% | 0% | – | – | – | 80% | – | – |
| Cc1cc(Nc2c(Cl)c(Cl)c(C#N)c(Cl)c2C#N)c(C)cc1Cl [KC6] | – | – | – | – | – | 0% | 0% | – | – | 0% | 0% | – | 0% | 0% | 0% | 0% | 0% | 0% | 0% | 0% | inhibition at 0.3 µg/mL (rice blast; [7]): 0% |
| N#Cc1c(Cl)c(Cl)c(Nc2ccc(Cl)cc2)c(C#N)c1Cl [KC2] | 0% | 0% | 0% | 0% | 0% | 0% | 0% | 0% | 0% | 0% | 0% | 0% | 0% | 0% | 0% | 0% | 0% | 0% | 0% | 0% | – |
| N#Cc1c(Cl)c(Cl)c(Nc2ccc([N+](=O)[O-])cc2)c(C#N)c1Cl [KC5] | 0% | 0% | – | – | – | 0% | 0% | – | – | 0% | 0% | – | 0% | 0% | 0% | 0% | 0% | – | – | 0% | pest or weed control at 25 µg/mL (cucumber downy mildew; [11]): 0%; pest or weed control at 50 µg/mL (cucumber downy mildew; dose 50 mg/L, read-out: protectant activity against cucumber downy mildew in vivo): 20% |
| N#Cc1c(F)c(Cl)c(Nc2ccc([N+](=O)[O-])cc2)c(C#N)c1F [KC22] | 0% | 0% | 0% | 0% | 0% | 0% | 0% | 0% | 0% | 0% | 0% | 0% | 0% | 0% | 0% | – | 0% | 0% | 0% | 0% | – |
| N#Cc1c(Cl)c(Cl)c(Cl)c(Cl)c1C#N [STM-2] | – | – | – | – | – | 0% | 0% | 0% | 0% | 0% | 0% | 50% | – | – | 50% | – | – | – | 70% | – | pest or weed control at 25 µg/mL (cucumber downy mildew; [11]): 10% |
| COc1ccc(Nc2c(Cl)c(Cl)c(C#N)c(Cl)c2C#N)cc1 [KC4] | – | – | – | – | – | 0% | 0% | 50% | 100% | – | 0% | – | 0% | 0% | 0% | 0% | 0% | 0% | 0% | 0% | pest or weed control at 25 µg/mL (cucumber downy mildew; [11]): 0%; inhibition at 0.9 µg/mL (cucumber gray mold; in vitro, dose 0.9 mg/L, read-out: inhibition rate against cucumber gray mold): 0%; inhibition at 2.8 µg/mL (cucumber gray mold; in vitro, dose 2.8 mg/L, read-out: inhibition rate against cucumber gray mold): 50%; inhibition at 0.9 µg/mL (rice blast; [7]): 0% |
| N#Cc1c(Cl)c(Cl)c(Nc2cc(Cl)c(C(F)(F)F)cc2Cl)c(C#N)c1Cl [Compound B-52] | – | – | – | – | – | – | – | – | – | – | – | – | – | – | – | – | – | – | – | – | the inhibition rate against cucumber gray mold (%) (cucumber gray mold; 0.3 mg/L): 0%; the inhibition rate against cucumber gray mold (%) (cucumber gray mold; 0.9 mg/L): 100%; the inhibition rate against cucumber gray mold (%) (cucumber gray mold; 2.8 mg/L): 100%; the inhibition rate against cucumber gray mold (%) (cucumber gray mold; 8.3 mg/L): 100%; protectant activity against wheat powdery mildew in vivo (wheat powdery mildew): 100%; the inhibition rate against rice blast (%) 0.03 mg/L (rice blast; Table 21, 0.03 mg/L): 100%; the inhibition rate against rice blast (%) 0.1 mg/L (rice blast; Table 21, 0.1 mg/L): 100%; the inhibition rate against rice blast (%) 0.3 mg/L (rice blast; Table 21, 0.3 mg/L): 100%; the protectant activity (%) against corn rust (corn rust; 6.25 mg/L): 70%; the protectant activity (%) against corn rust (corn rust; 25 mg/L): 98%; the protectant activity (%) against corn rust (corn rust; 100 mg/L): 100%; the protectant activity (%) against corn rust (corn rust; 400 mg/L): 100%; protectant activity against corn rust in vivo (corn rust; dose 100 mg/L): 100%; protectant activity against corn rust in vivo (corn rust; dose 400 mg/L): 100% |
